Patent US9169224B2, “Piperazinyl and piperidinyl ureas as modulators of fatty acid amide hydrolase” (Janssen Pharmaceutica NV, priority 2004, dated 2015)
Structures can show the parent of a compound that is named as a salt.

What was measured:
Format in all cases: biochemical
FAAH [1] = molecular target: T1, FAAH (Homo sapiens (Human), UniProt O00519); test: Assay Method 1: FAAH assay, T84 cell homogenate, 3H-anandamide hydrolysis; conditions: 3H-AEA tracer 200 nM, 1 h at rt
In short: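 Homogenate of human T84 cells in pH 9 Tris/EDTA buffer with 0.02% Triton X-100 was incubated with compound and 200 nM final 3H-anandamide for 1 h at rt. Released [3H]ethanolamine was separated from substrate through activated charcoal by centrifugation and quantified by scintillation counting.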

rat FAAH = rat FAAH (Rattus norvegicus (Rat), UniProt P97612); test: Assay Method 3: FAAH assay, cells transfected with rat FAAH; conditions: T84 or rat FAAH-transfected SK-N-MC cell homogenate, 3H-AEA tracer 80 nM, 1 h at rt
rat FAAH, sequence (P97612 whole entry): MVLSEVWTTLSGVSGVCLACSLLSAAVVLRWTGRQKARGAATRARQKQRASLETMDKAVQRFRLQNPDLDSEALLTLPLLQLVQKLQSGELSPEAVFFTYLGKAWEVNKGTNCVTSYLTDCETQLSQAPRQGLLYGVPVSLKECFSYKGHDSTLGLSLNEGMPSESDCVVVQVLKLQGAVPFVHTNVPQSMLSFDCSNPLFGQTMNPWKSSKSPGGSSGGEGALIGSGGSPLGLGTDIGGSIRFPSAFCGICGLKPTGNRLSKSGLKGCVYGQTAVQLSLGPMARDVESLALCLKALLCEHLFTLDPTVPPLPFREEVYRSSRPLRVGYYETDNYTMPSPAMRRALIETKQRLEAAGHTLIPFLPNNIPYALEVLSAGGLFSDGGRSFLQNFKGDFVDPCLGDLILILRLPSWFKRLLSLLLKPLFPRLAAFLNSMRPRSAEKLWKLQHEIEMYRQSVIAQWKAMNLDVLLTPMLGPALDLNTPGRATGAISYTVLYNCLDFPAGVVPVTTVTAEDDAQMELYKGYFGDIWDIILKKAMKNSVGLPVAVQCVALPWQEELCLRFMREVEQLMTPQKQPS
Method: Assay Method 3 A. Transfection of Cells with Rat FAAH
(§1) A 10-cm tissue culture dish with a confluent monolayer of SK-N-MC cells was split 2 days (d) prior to transfection. Using sterile technique, the media was removed and the cells were detached from the dish by the addition of trypsin. One fifth of the cells were then placed onto a new 10-cm dish. Cells were grown in a 37° C. incubator with 5% CO2 in Minimal Essential Media Eagle with 10% Fetal Bovine Serum. After 2 d, cells were approximately 80% confluent. These cells were removed from the dish with trypsin and pelleted in a clinical centrifuge. The pellet was re-suspended in 400 μL complete media and transferred to an electroporation cuvette with a 0.4 cm gap between the electrodes. Supercoiled rat FAAH cDNA (1 μg) was added to the cells and mixed. The voltage for the electroporation was set at 0.25 kV, and the capacitance was set at 960 μF. After electroporation, the cells were diluted into complete media (10 mL) and plated onto four 10-cm dishes. Because of the variability in the efficiency of electroporation, four different concentrations of cells were plated. The ratios used were 1:20, 1:10, and 1:5, with the remainder of the cells being added to the fourth dish. The cells were allowed to recover for 24 h before adding the selection media (complete media with 600 μg/mL G418). After 10 d, dishes were analyzed for surviving colonies of cells. Dishes with well-isolated colonies were used. Cells from individual colonies were isolated and tested.
(§2) T84 frozen cell pellets or transfected SK-N-MC cells (contents of 1×15 cm culture dishes) were homogenized in 50 mL of FAAH assay buffer (125 mM Tris, 1 mM EDTA, 0.2% Glycerol, 0.02% Triton X-100, 0.4 mM Hepes, pH 9). The assay mixture consisted of 50 μL of the cell homogenate, 10 μL of the test compound, and 40 μL of anandamide [1-^3H-ethanolamine] (^3H-AEA, Perkin-Elmer, 10.3 Ci/mmol), which was added last, for a final tracer concentration of 80 nM. The reaction mixture was incubated at rt for 1 h. During the incubation, 96-well Multiscreen filter plates (catalog number MAFCNOB50; Millipore, Bedford, Mass., USA) were loaded with 25 μL of activated charcoal (Multiscreen column loader, catalog number MACL09625, Millipore) and washed once with 100 μL of MeOH. Also during the incubation, 96-well DYNEX MicroLite plates (catalog number NL510410) were loaded with 100 μL of MicroScint40 (catalog number 6013641, Packard Bioscience, Meriden, Conn., USA). After the 1 h incubation, 60 μL of the reaction mixture were transferred to the charcoal plates, which were then assembled on top of the DYNEX plates using Centrifuge Alignment Frames (catalog number MACF09604, Millipore). The unbound labeled ethanolamine was centrifuged through to the bottom plate (5 min at 2000 rpm), which was preloaded with the scintillant, as described above. The plates were sealed and left at rt for 1 h before counting on a Hewlett Packard TopCount.

FAAH [2] = molecular target: T1, FAAH; test: Assay Method 2: FAAH assay, cells transfected with human FAAH; conditions: T84 or human FAAH-transfected SK-N-MC cell homogenate, 3H-AEA tracer 80 nM, 1 h at rt
Method: Assay Method 2 A. Transfection of Cells with Human FAAH
as §1, with “Supercoiled human” for “Supercoiled rat”, “([…])” for “(1 μg)”
as §2, with “[…]” for “40 μL”

T1 sequence (O00519 whole entry): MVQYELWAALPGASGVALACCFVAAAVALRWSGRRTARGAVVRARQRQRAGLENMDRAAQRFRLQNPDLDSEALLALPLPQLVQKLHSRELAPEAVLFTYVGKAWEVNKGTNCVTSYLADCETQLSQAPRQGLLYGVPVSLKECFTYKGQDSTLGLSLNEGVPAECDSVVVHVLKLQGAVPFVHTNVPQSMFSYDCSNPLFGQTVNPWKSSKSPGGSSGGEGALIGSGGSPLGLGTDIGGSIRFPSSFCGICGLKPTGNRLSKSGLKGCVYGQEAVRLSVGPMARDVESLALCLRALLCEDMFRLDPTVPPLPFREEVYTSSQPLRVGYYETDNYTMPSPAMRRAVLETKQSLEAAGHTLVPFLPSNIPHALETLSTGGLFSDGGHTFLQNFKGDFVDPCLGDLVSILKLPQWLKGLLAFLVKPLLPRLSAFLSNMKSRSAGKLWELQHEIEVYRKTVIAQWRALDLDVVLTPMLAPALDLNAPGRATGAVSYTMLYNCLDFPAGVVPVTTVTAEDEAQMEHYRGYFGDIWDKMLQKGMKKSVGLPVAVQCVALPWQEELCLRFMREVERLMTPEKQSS

Compound | IC50 (FAAH [1]) [µM] | IC50 (rat FAAH) [µM] | IC50 (FAAH [2]) [µM] | IC50 (FAAH [1]; hydrochloride) [µM] | IC50 (rat FAAH; hydrochloride) [µM]
O=C(Nc1ccccc1)N1CCN(Cc2ccc3ccccc3n2)CC1 [Example 19, 4-Quinolin-2-ylmethyl-piperazine-1-carboxylic acid phenylamide] | 0.019 | 0.35 | – | – | –
Cn1c(CN2CCN(C(=O)Nc3ccccc3)CC2)cc2ccccc21 [Example 22, 4-(1-Methyl-1H-indol-2-ylmethyl)-piperazine-1-carboxylic acid phenylamide] | 0.026 | 1.4 | – | – | –
COc1cc(Br)cc(CN2CCN(C(=O)Nc3ccccc3)CC2)c1O [Example 26, 4-(5-Bromo-2-hydroxy-3-methoxy-benzyl)-piperazine-1-carboxylic acid phenylamide] | 0.079 | 0.13 | – | – | –
O=C(Nc1ccc(F)cc1)N1CCN(Cc2ccc3ccccc3c2)CC1 [Example 57, 4-Naphthalen-2-ylmethyl-piperazine-1-carboxylic acid (4-fluoro-phenyl)-amide] | 0.054 | 0.43 | – | – | –
O=C(Nc1ccccc1)N1CCN(Cc2ccc3ccc4cccc5ccc2c3c45)CC1 [Example 68, 4-Pyren-1-ylmethyl-piperazine-1-carboxylic acid phenylamide] | 0.095 | 0.61 | – | – | –
COC(=O)c1ccccc1NC(=O)N1CCN(Cc2cnc3ccccc3c2)CC1 [Example 105, 2-[(4-Quinolin-3-ylmethyl-piperazine-1-carbonyl)-amino]-benzoic acid methyl ester] | – | 10 | > 10 | – | –
COC(=O)c1cccc(NC(=O)N2CCN(Cc3cnc4ccccc4c3)CC2)c1 [Example 106, 3-[(4-Quinolin-3-ylmethyl-piperazine-1-carbonyl)-amino]-benzoic acid methyl ester] | – | 2 | 0.23 | – | –
COC(=O)c1ccc(NC(=O)N2CCN(Cc3cnc4ccccc4c3)CC2)cc1 [Example 107, 4-[(4-Quinolin-3-ylmethyl-piperazine-1-carbonyl)-amino]-benzoic acid methyl ester] | – | 8 | 0.65 | – | –
O=C(Nc1ccc(F)cc1F)N1CCN(Cc2cnc3ccccc3c2)CC1 [Example 111, 4-Quinolin-3-ylmethyl-piperazine-1-carboxylic acid (2,4-difluoro-phenyl)-amide] | 0.25 | 2 | – | – | –
O=C(Nc1ccccc1F)N1CCN(Cc2cnc3ccccc3c2)CC1 [Example 112, 4-Quinolin-3-ylmethyl-piperazine-1-carboxylic acid (2-fluoro-phenyl)-amide] | 0.061 | 0.37 | – | – | –
O=C(O)c1ccccc1NC(=O)N1CCN(Cc2cnc3ccccc3c2)CC1 [Example 140, 2-[(4-Quinolin-3-ylmethyl-piperazine-1-carbonyl)-amino]-benzoic acid (potassium salt)] | – | 10 | > 10 | – | –
O=C(O)c1cccc(NC(=O)N2CCN(Cc3cnc4ccccc4c3)CC2)c1 [Example 141, 3-[(4-Quinolin-3-ylmethyl-piperazine-1-carbonyl)-amino]-benzoic acid (potassium salt)] | – | 8 | 5 | – | –
O=C(Nc1cccnc1)N1CCN(Cc2cnc3ccccc3c2)CC1 [Example 142, 4-Quinolin-3-ylmethyl-piperazine-1-carboxylic acid pyridin-3-ylamide] | – | 4 | 4.1 | – | –
O=C(Nc1ccccn1)N1CCN(Cc2cnc3ccccc3c2)CC1 [Example 143, 4-Quinolin-3-ylmethyl-piperazine-1-carboxylic acid pyridin-2-ylamide] | – | 8 | 1.8 | – | –
O=C(Nc1ccncc1)N1CCN(Cc2cnc3ccccc3c2)CC1 [Example 144, 4-Quinolin-3-ylmethyl-piperazine-1-carboxylic acid pyridin-4-ylamide] | – | 10 | 2 | – | –
O=C(Nc1ncccn1)N1CCN(Cc2cnc3ccccc3c2)CC1 [Example 145, 4-Quinolin-3-ylmethyl-piperazine-1-carboxylic acid pyrimidin-2-ylamide] | – | 10 | 8 | – | –
O=C(Nc1cccnc1)N1CCN(Cc2ccc3c(c2)OCO3)CC1 [Example 146, 4-Benzo[1,3]dioxol-5-ylmethyl-piperazine-1-carboxylic acid pyridin-3-ylamide] | – | 6.5 | 0.38 | – | –
O=C(Nc1ccncc1)N1CCN(Cc2ccc3c(c2)OCO3)CC1 [Example 147, 4-Benzo[1,3]dioxol-5-ylmethyl-piperazine-1-carboxylic acid pyridin-4-ylamide] | – | 10 | 3 | – | –
O=C(Nc1ncccn1)N1CCN(Cc2ccc3c(c2)OCO3)CC1 [Example 148, 4-Benzo[1,3]dioxol-5-ylmethyl-piperazine-1-carboxylic acid pyrimidin-2-ylamide] | – | 10 | > 10 | – | –
O=C(Nc1ccccc1)N1CCN(Cc2ccc(Br)c(Br)c2)CC1 [Example 162, 4-(3,4-Dibromo-benzyl)-piperazine-1-carboxylic acid phenylamide hydrochloride] | – | – | – | 0.038 | 0.27
O=C(Nc1ccccc1)N1CCN(Cc2ccc3c(c2)OCO3)CC1 [Example B, 4-Benzo[1,3]dioxol-5-ylmethyl-piperazine-1-carboxylic acid phenylamide, reference compound] | 0.35 | 8 | – | – | –
O=C(Nc1ccc(F)cc1)N1CCN(Cc2ccc3c(c2)OCO3)CC1 [Example G, 4-Benzo[1,3]dioxol-5-ylmethyl-piperazine-1-carboxylic acid (4-fluoro-phenyl)-amide, reference compound] | 1.6 | 10 | – | – | –
